# Experimental data from US4226883A, “Carbamate derivatives and method for manufacture thereof” (priority 1974, dated 1980).
# Where two headings read alike, the source gives them in different places.
# Tests used:
# [1] = test system: resistant green rice leafhoppers (R); conditions: 1440 min; for Insecticidal Activity R/S (resistant ratio): ratio of the resistant strain to the susceptible strain (LD50)
# Description: (1) A 20-mg portion of a given test compound was weighed out and dissolved in 10 ml of acetone. The resultant solution was diluted at proper times with acetone.
# (2) With a micro-syringe, the acetone solution of the test compound was topically applied to the thoracic region of female green rice leafhoppers at a fixed dose of 0.2 μl per head.
# (3) The female green rice leafhoppers thus treated were placed in a plastic cup prepared in advance (measuring 7 cm in diameter and 3.5 cm in depth and containing rice seeds) and kept at a constant temperature of 26±1° C. After 24 hours' standing, the dead insects were counted.
# In the case of a mixed insecticide, the LD50 was shown as a total dosage.
# [2] = test system: green rice leafhoppers of the strain RN; test: Test Example 3: dust spray test (20 mesh metal gauze cylinder); type: in vivo, Nephotettix cincticeps; conditions: for Effect of individual compound (RN), death ratio (%) (Table 9): dust, compound alone, RN strain; for death ratio (%), mixture with Compound No. 1 / death ratio (%), mixture with Compound No. 6* / death ratio (%), mixture with Compound No. 24* / death ratio (%), mixture with Compound No. 35* / death ratio (%), mixture with Compound No. 40* / death ratio (%), mixture with Compound No. 49* / death ratio (%), mixture with Compound No. 81* / death ratio (%), mixture with Compound No. 118* / death ratio (%), mixture with Carbofuran / death ratio (%), mixture with Methomyl: Table 9, RN; for death ratio (%), mixture with Compound No. 1: dust mixed with 1; for death ratio (%), mixture with Compound No. 6*: dust mixed with 6*; for death ratio (%), mixture with Compound No. 24*: dust mixed with 24*; for death ratio (%), mixture with Compound No. 35*: dust mixed with 35*; for death ratio (%), mixture with Compound No. 40*: dust mixed with 40*; for death ratio (%), mixture with Compound No. 49*: dust mixed with 49*; for death ratio (%), mixture with Compound No. 81*: dust mixed with 81*; for death ratio (%), mixture with Compound No. 118*: dust mixed with 118*; for death ratio (%), mixture with Carbofuran: dust mixed with Carbofuran; for death ratio (%), mixture with Methomyl: dust mixed with Methomyl
# Description: The insecticides in the form of dust were tested for insecticidal activity.
# The test for insecticidal activity was performed by the following procedure. […] The dust of a test compound (pulverized by means of a shaking pulverizer made by Taira Kosakusho, Ltd.) was applied onto the tube contents at a prescribed rate by spraying from outside the metal gauze by means of a bell-jar duster. The dust of the test compound was prepared uniformly mixing 2 parts of the dust of the individual compound or 1 part each of the dusts of the mixture components (total 2 parts) and 98 parts of a carrier obtained by mixing talc and clay in equal volumes.
# [3] = 2% dust, 100 mg, 24 hr, read-out: Mortality (%) after 24 hr., 100 mg Spray (Table 7)
# [4] = 2% dust, 250 mg, 24 hr, read-out: Mortality (%) after 24 hr., 250 mg Spray (Table 7)
# [5] = Table 8, dust 100 mg, 24 hr, read-out: Mortality (%) after 24 hr., Spray Volume 100 mg
# [6] = Table 8, dust 250 mg, 24 hr, read-out: Mortality (%) after 24 hr., Spray Volume 250 mg
smiles,measurement,setting,value
"C=CCNC(=O)Oc1ccccc1C(C)C [Compound 5, 2-isopropylphenyl-N-allylcarbamate]",Insecticidal Activity R/S (resistant ratio),[1],3.1
"CCCNC(=O)Oc1cccc(C(C)(C)C)c1 [Compound 33, 3-tert-butylphenyl-N-n-propylcarbamate]",Insecticidal Activity R/S (resistant ratio),[1],1.5
"CNC(=O)Oc1cccc2c1OC(C)(C)C2 [Carbofuran, 2,3dihydro-2,2-dimethyl-benzofuran-7-yl-N-methylcarbamate, reference compound]","Effect of individual compound (RN), death ratio (%) (Table 9)",[2],40.0%
"CCNC(=O)Oc1cc(C)cc(C(C)C)c1 [Compound 46, 3-methyl-5-isopropylphenyl-N-ethylcarbamate]",mortality at 100 mg/cylinder,[2]; [3],45%
same,mortality at 250 mg/cylinder,[2]; [4],70%
same,Insecticidal Activity R/S (resistant ratio),[1],0.9
"C=CCNC(=O)Oc1cccc(C)c1 [Compound 28, 3-methylphenyl-N-allylcarbamate]",mortality at 100 mg/cylinder,[2]; [3],60%
same,mortality at 250 mg/cylinder,[2]; [4],100%
same,Insecticidal Activity R/S (resistant ratio),[1],1.8
"CNC(=O)ON=C(C)SC [Methomyl, 1(methylthio)ethylideneamino-N-methylcarbamate, reference compound]","Effect of individual compound (RN), death ratio (%) (Table 9)",[2],35.0%
"CCNC(=O)Oc1cccc(C)c1 [Compound 25, 3-methylphenyl-N-ethylcarbamate]",Insecticidal Activity R/S (resistant ratio),[1],3.7
"CCCNC(=O)Oc1ccccc1OC [Compound 77, 2-methoxyphenyl-N-n-propylcarbamate]","death ratio (%), mixture with Compound No. 1",[2],95.0%
same,"death ratio (%), mixture with Compound No. 6*",[2],100%
same,"death ratio (%), mixture with Compound No. 24*",[2],100%
same,"death ratio (%), mixture with Compound No. 35*",[2],100%
same,"death ratio (%), mixture with Compound No. 40*",[2],95.0%
same,"death ratio (%), mixture with Compound No. 49*",[2],50.0%
same,"death ratio (%), mixture with Compound No. 81*",[2],80.0%
same,"death ratio (%), mixture with Compound No. 118*",[2],100%
same,"death ratio (%), mixture with Carbofuran",[2],100%
same,"death ratio (%), mixture with Methomyl",[2],100%
same,"Effect of individual compound (RN), death ratio (%) (Table 9)",[2],45.0%
"CCNC(=O)Oc1ccccc1C(C)CC (stereo not shown) [Compound 7, 2-sec-butylphenyl-N-ethylcarbamate]",Insecticidal Activity R/S (resistant ratio),[1],2.6
"CNC(=O)Oc1ccc(C)c(C)c1 [Compound 35, 3,4-dimethylphenyl-N-methylcarbamate, reference compound]",mortality at 100 mg/cylinder,"[2]; 24 h, read-out: Mortality (%) after 24 hr., 100 mg Spray (Table 7)",0%
same,mortality at 250 mg/cylinder,"[2]; 24 h, read-out: Mortality (%) after 24 hr., 250 mg Spray (Table 7)",0%
same,mortality at 100 mg/cylinder,"[2]; 24 h, read-out: Mortality (%) after 24 hr., Spray Volume 100 mg",0%
same,mortality at 250 mg/cylinder,"[2]; 24 h, read-out: Mortality (%) after 24 hr., Spray Volume 250 mg",0%
same,Insecticidal Activity R/S (resistant ratio),[1],4.7
"CCCNC(=O)Oc1cccc(OCC)c1 [Compound 94, 3-ethoxyphenyl-N-n-propylcarbamate]","death ratio (%), mixture with Compound No. 1",[2],80.0%
same,"death ratio (%), mixture with Compound No. 6*",[2],85.0%
same,"death ratio (%), mixture with Compound No. 24*",[2],95.0%
same,"death ratio (%), mixture with Compound No. 35*",[2],95.0%
same,"death ratio (%), mixture with Compound No. 40*",[2],85.0%
same,"death ratio (%), mixture with Compound No. 49*",[2],35.0%
same,"death ratio (%), mixture with Compound No. 81*",[2],95.0%
same,"death ratio (%), mixture with Compound No. 118*",[2],95.0%
same,"death ratio (%), mixture with Carbofuran",[2],90.0%
same,"death ratio (%), mixture with Methomyl",[2],100%
same,"Effect of individual compound (RN), death ratio (%) (Table 9)",[2],0%
"C=CCNC(=O)Oc1ccccc1C(C)CC (stereo not shown) [Compound 10, 2-sec-butylphenyl-N-allylcarbamate]",mortality at 250 mg/cylinder,[2]; [4],100%
same,Insecticidal Activity R/S (resistant ratio),[1],4.3
"CNC(=O)Oc1ccccc1OC(C)C [Compound 81, 2-isopropoxyphenyl-N-methylcarbamate, reference compound]","death ratio (%), mixture with Compound No. 1",[2],0%
same,"death ratio (%), mixture with Compound No. 6*",[2],5.0%
same,"death ratio (%), mixture with Compound No. 24*",[2],0%
same,"death ratio (%), mixture with Compound No. 35*",[2],15.0%
same,"death ratio (%), mixture with Compound No. 40*",[2],20.0%
same,"death ratio (%), mixture with Compound No. 49*",[2],0%
same,"death ratio (%), mixture with Compound No. 81*",[2],10.0%
same,"death ratio (%), mixture with Compound No. 118*",[2],57.5%
same,"death ratio (%), mixture with Carbofuran",[2],30.0%
same,"death ratio (%), mixture with Methomyl",[2],35.0%
same,"Effect of individual compound (RN), death ratio (%) (Table 9)",[2],0%
same,"Effect of individual compound, LD50 (μ g/g) (Table 5-2)",[1]; compound alone,> 100 μ g/g
"CCCNC(=O)Oc1cccc(CC)c1 [Compound 31, 3-ethylphenyl-N-n-propylcarbamate]",Insecticidal Activity R/S (resistant ratio),[1],0.5
"C=CCNC(=O)Oc1ccc(C)c(C)c1 [Compound 39, 3,4-dimethylphenyl-N-allylcarbamate]",mortality at 100 mg/cylinder,[2]; [3],50%
same,mortality at 250 mg/cylinder,[2]; [4],60%
same,Insecticidal Activity R/S (resistant ratio),[1],0.8
"C=CCNC(=O)Oc1ccccc1OC(C)C [Compound 85, 2-isopropoxyphenyl-N-allylcarbamate]","death ratio (%), mixture with Compound No. 1",[2],50.0%
same,"death ratio (%), mixture with Compound No. 6*",[2],45.0%
same,"death ratio (%), mixture with Compound No. 24*",[2],35.0%
same,"death ratio (%), mixture with Compound No. 35*",[2],75.0%
same,"death ratio (%), mixture with Compound No. 40*",[2],60.0%
same,"death ratio (%), mixture with Compound No. 49*",[2],0%
same,"death ratio (%), mixture with Compound No. 81*",[2],80.0%
same,"death ratio (%), mixture with Compound No. 118*",[2],35.0%
same,"death ratio (%), mixture with Carbofuran",[2],85.0%
same,"death ratio (%), mixture with Methomyl",[2],90.0%
same,"Effect of individual compound (RN), death ratio (%) (Table 9)",[2],25.0%
"CCCNC(=O)Oc1cccc(C(C)C)c1 [Compound 13, 3-isopropylphenyl-N-n-propylcarbamate]",Insecticidal Activity R/S (resistant ratio),[1],1.4
"C=CCNC(=O)Oc1cc(C)cc(C)c1 [Compound 44, 3,5-dimethylphenyl-N-allylcarbamate]",mortality at 100 mg/cylinder,[2]; [3],60%
same,mortality at 250 mg/cylinder,[2]; [4],80%
same,Insecticidal Activity R/S (resistant ratio),[1],0.9
CCCCNC(=O)Oc1ccccc1OC(C)C [Compound 84],"death ratio (%), mixture with Compound No. 1",[2],0%
same,"death ratio (%), mixture with Compound No. 6*",[2],15.0%
same,"death ratio (%), mixture with Compound No. 24*",[2],5.0%
same,"death ratio (%), mixture with Compound No. 35*",[2],10.0%
same,"death ratio (%), mixture with Compound No. 40*",[2],5.0%
same,"death ratio (%), mixture with Compound No. 49*",[2],0%
same,"death ratio (%), mixture with Compound No. 81*",[2],100%
same,"death ratio (%), mixture with Compound No. 118*",[2],67.5%
same,"death ratio (%), mixture with Carbofuran",[2],55.0%
same,"death ratio (%), mixture with Methomyl",[2],70.0%
same,"Effect of individual compound (RN), death ratio (%) (Table 9)",[2],0%
"CNC(=O)Oc1cc(C)cc(C)c1 [Compound 40, 3,5-dimethylphenyl-N-methylcarbamate, reference compound]",mortality at 100 mg/cylinder,[2]; [3],5%
same,mortality at 250 mg/cylinder,[2]; [4],15%
same,mortality at 100 mg/cylinder,[2]; [5],5%
same,mortality at 250 mg/cylinder,[2]; [6],15%
same,"Effect of individual compound (RN), death ratio (%) (Table 9)",[2],0%
same,Insecticidal Activity R/S (resistant ratio),[1],5.3
"CCNC(=O)Oc1ccccc1OC(C)C [Compound 82, 2-isopropoxyphenyl-N-ethylcarbamate]","death ratio (%), mixture with Compound No. 1",[2],25.0%
same,"death ratio (%), mixture with Compound No. 6*",[2],50.0%
same,"death ratio (%), mixture with Compound No. 24*",[2],45.0%
same,"death ratio (%), mixture with Compound No. 35*",[2],60.0%
same,"death ratio (%), mixture with Compound No. 40*",[2],45.0%
same,"death ratio (%), mixture with Compound No. 49*",[2],15.0%
same,"death ratio (%), mixture with Compound No. 81*",[2],55.0%
same,"death ratio (%), mixture with Compound No. 118*",[2],80.0%
same,"death ratio (%), mixture with Carbofuran",[2],80.0%
same,"death ratio (%), mixture with Methomyl",[2],85.0%
same,"Effect of individual compound (RN), death ratio (%) (Table 9)",[2],15.0%
"CCCNC(=O)Oc1ccccc1OCC [Compound 80, 2-ethoxyphenyl-N-n-propylcarbamate]","death ratio (%), mixture with Compound No. 1",[2],65.0%
same,"death ratio (%), mixture with Compound No. 6*",[2],60.0%
same,"death ratio (%), mixture with Compound No. 24*",[2],57.5%
same,"death ratio (%), mixture with Compound No. 35*",[2],65.0%
same,"death ratio (%), mixture with Compound No. 40*",[2],55.0%
same,"death ratio (%), mixture with Compound No. 49*",[2],15.0%
same,"death ratio (%), mixture with Compound No. 81*",[2],60.0%
same,"death ratio (%), mixture with Compound No. 118*",[2],70.0%
same,"death ratio (%), mixture with Carbofuran",[2],85.0%
same,"death ratio (%), mixture with Methomyl",[2],75.0%
same,"Effect of individual compound (RN), death ratio (%) (Table 9)",[2],0%
"CCNC(=O)Oc1ccc(C)c(C)c1 [Compound 36, 3,4-dimethylphenyl-N-ethylcarbamate]",mortality at 100 mg/cylinder,[2]; [3],55%
same,mortality at 250 mg/cylinder,[2]; [4],80%
same,Insecticidal Activity R/S (resistant ratio),[1],3.3
"CNC(=O)Oc1cc(C)c(N(C)C)c(C)c1 [Compound 118, 4-dimethylamino-3,5-dimethylphenyl-N-methylcarbamate, reference compound]","Effect of individual compound (RN), death ratio (%) (Table 9)",[2],23.4%
"CCCNC(=O)Oc1cc(C)cc(C(C)C)c1 [Compound 47, 3-methyl-5-isopropylphenyl-N-n-propylcarbamate]",mortality at 100 mg/cylinder,[2]; [3],70%
same,mortality at 250 mg/cylinder,[2]; [4],100%
same,Insecticidal Activity R/S (resistant ratio),[1],1.4
"CNC(=O)Oc1cccc(C)c1 [Compound 24, 3-methylphenyl-N-methylcarbamate, reference compound]",mortality at 100 mg/cylinder,[2]; [3],0%
same,mortality at 250 mg/cylinder,[2]; [4],20%
same,mortality at 100 mg/cylinder,[2]; [5],0%
same,mortality at 250 mg/cylinder,[2]; [6],20%
same,"Effect of individual compound (RN), death ratio (%) (Table 9)",[2],0%
same,Insecticidal Activity R/S (resistant ratio),[1],9.9
